Assay results taken from PMC10290335 (Malaria Journal, 2023).

Columns and labels:
[1] = Clinical pharmacokinetics of ivermectin metabolites in blood of healthy volunteers; type: in vivo, human; details: for Cmax [ratio]: area/internal standard area ratio; for Cmax [ratio] / Half-life / MRTlast / Tmax: whole blood, 12 subjects, mean ± SE; for Cmax [ratio] / Half-life / MRTlast: 12 mg ivermectin, NCA; for Tmax: single oral 12 mg ivermectin
Method: Peripheral venous blood samples were collected before dosing and after 1, 2, 4, 6, 8, 12, 24, 48 and 72 h. Blood samples (50 µL) were extracted by the addition of 150 µL ISTD solution. Samples were mixed for 1 min and centrifuged for 30 min at 3220×g and 15 °C (5810 R centrifuge). Twenty microlitres of supernatant were injected into the LC–MS/MS system to determine the signal intensity of the metabolites.
The different LC–MS/MS settings were applied for the metabolism, pharmacokinetic and metabolite fractioning assays (Additional file 1: Table S1, S2, S3). All analyses were performed on a modular HPLC (Shimadzu, Kyoto, Japan) composed of four pumps (2 × LC-30AD, 2 × LC-20AD), an autosampler (SIL 30-AC MP), a system controller (CBM-20A), two degassing units (DGU-20A5 and DGU-20A3R), a column oven (CTO-20AC), a low-pressure valve (FCV-12AH), and a fraction collector (FRC-12A). The HPLC system was connected to an API 5000 triple quadrupole mass spectrometer (AB Sciex, Ontario, Canada) that was equipped with a turbo electrospray ionization source. The system was operated with Analyst Software 1.7 (AB Sciex) and acquired data were analysed using MultiQuant Software 3.0.3 (AB Sciex).
The integral method “linear up log down” was used on area/internal standard area ratio.
In total, three T0 blank blood samples originating from different PK study participants were used to resuspend the metabolites (Additional file 1: Table S5). The signal intensity was recorded for every metabolite by extracting the 50 µL blood with 150 µL of ISTD solution. The metabolite peak area was determined by LC–MS/MS (see section LC-MS/MS analysis of ivermectin). Moreover, the PK samples of all study participants were equally extracted and analysed to derive the maximal blood level (Cmax) from the blood level-time curves. Afterwards, the mean metabolite peak area of the spiked blank blood was compared with the mean peak area of the Cmax samples (Additional file 1: Table S5). The amount of each metabolite fraction was either reduced or increased to match the peak area of Cmax samples. If the metabolite was not detectable in PK samples, the amount of metabolite was adjusted to the lower limit of detection of the method. In this case, blank blood was spiked with the metabolite fraction to receive a signal intensity that is three times larger than the corresponding noise level.

[2] = system: Anopheles stephensi mosquitoes; assay: Anopheles stephensi membrane feeding screening assay (survival and activity); type: in vivo; details: for Average activity score: score +2 flying, +1 moving, 0 dead; for activity against An. stephensi: at Cmax levels observed in clinical PK samples
Method: The final DMSO content in blood was 0.1%, which was also the DMSO concentration used for the negative control assays (0.1% DMSO in blank blood). Inclusion of blank fractions as additional negative controls were not considered, because it would not have been feasible to also test the corresponding blank fraction for each metabolite fraction (F1–F9). The blood preparations were rotated at room temperature for 20 min to ensure a uniform metabolite distribution (Rotator Genie, Scientific Industries, Bohemia, USA). The dissolution of the metabolites was confirmed by LC–MS/MS.
Around 50–70 female mosquitoes aged 5–10 days post-emergence were transferred with a mouth aspirator into 20 mL paper cups. A piece of mosquito netting was used to cover the cups. Mosquitoes were starved for 24 h before treatment. The mosquito blood meals were heated in a water bath (SAHARA PPO S5P Heated Bath Circulators, Thermo Fisher Scientific, New Hampshire, USA) for 20 min at 39 °C. A Petri dish (35 mm × 10 mm, BD, Franklin Lakes, USA) was filled with 3 mL of warm blood, sealed with a piece of sealing film (Parafilm®, Huberlab AG, Aesch, Switzerland). The Petri dish was placed upside down on top of the net sealing the paper cup. Female mosquitoes were allowed to feed for 20 min on the blood through the net and the sealing film. The feeding was conducted in a climate chamber (HPP110, Memmert GmbH + Co.KG, Schwabach, Germany) at 27 °C, 70% humidity, and 30% light intensity. After feeding, the cups were put on ice to immobilise the mosquitoes and only the fully engorged mosquitoes were selected for the assay. The mosquitoes were returned to the climate chamber to assess their activity and survival for 3 days.
In the framework of screening assays, mosquitoes were treated with blood containing each metabolite corresponding to Cmax levels observed in PK samples. […] In screening assays, eleven treatments were evaluated with three replicates using three batches of 50–70 mosquitoes.

[3] = mean of PK subjects 1-12, 50 µL blood

Row | Compound | Observed Cmax, peak area ([1]; PK subject 1, 50 µL blood) [counts] | Observed Cmax, peak area ([1]; PK subject 2, 50 µL blood) [counts] | Observed Cmax, peak area ([1]; PK subject 3, 50 µL blood) [counts] | Observed Cmax, peak area ([1]; PK subject 4, 50 µL blood) [counts] | Observed Cmax, peak area ([1]; PK subject 5, 50 µL blood) [counts] | Observed Cmax, peak area ([1]; PK subject 6, 50 µL blood) [counts] | Observed Cmax, peak area ([1]; PK subject 7, 50 µL blood) [counts] | Observed Cmax, peak area ([1]; PK subject 8, 50 µL blood) [counts] | Observed Cmax, peak area ([1]; PK subject 9, 50 µL blood) [counts] | Observed Cmax, peak area ([1]; PK subject 10, 50 µL blood) [counts] | Observed Cmax, peak area ([1]; PK subject 11, 50 µL blood) [counts] | Observed Cmax, peak area ([1]; PK subject 12, 50 µL blood) [counts] | Cmax [ratio] [1] [ratio] | Observed Cmax, peak area [1, 3] [counts] | Half-life [1] [h] | Tmax [1] [h] | Average activity score ([2]; 0 h post feeding) | Average activity score ([2]; 24 h post feeding) | Average activity score ([2]; 48 h post feeding) | Average activity score ([2]; 72 h post feeding) | further results
1 | 3″-O-desmethyl, 26-hydroxy-H2B1a [M6] | 3.04E+03 | 1.56E+03 | 2.10E+03 | 1.60E+03 | 1.15E+03 | 3.23E+03 | 1.62E+03 | 1.82E+03 | 1.80E+03 | 1.99E+03 | 2.12E+03 | 2.69E+03 | 0.002 ± 0.0002 | 2.06E+03 | 32.4 ± 4.1 | 5.4 ± 0.4 | 2.00 | 1.89 | 1.91 | 1.42 | MRTlast [1]: 18.3 ± 1.6 h; activity against An. stephensi [2]: minor mosquitocidal properties; mean survival of mosquitoes after blood meal ([2]; blood meal at Cmax level): decreased
2 | CC[C@H](C)[C@H]1O[C@]2(CC[C@@H]1CO)C[C@@H]1C[C@@H](C/C=C(\C)[C@@H](O[C@H]3C[C@H](OC)[C@@H](O)[C@H](C)O3)[C@@H](C)/C=C/C=C3\CO[C@@H]4[C@H](O)C(C)=C[C@@H](C(=O)O1)[C@]34O)O2 [M5, 24-hydroxy-H2B1a monosaccharide] | 7.86E+02 | 5.85E+02 | 1.01E+03 | 7.22E+02 | 6.06E+02 | 1.25E+03 | 8.58E+02 | 6.84E+02 | 6.59E+02 | 7.23E+02 | 8.95E+02 | 7.29E+02 | – | 7.92E+02 | – | 6.4 ± 0.4 | 2.00 | 1.90 | 1.86 | 1.81 | –
3 | CCC(C)C1OC2(CCC1C)CC1CC(CC=C(C)C(OC3CC(OC)C(OC4CC(O)C(O)C(C)O4)C(C)O3)C(C)C=CC=C3COC4C(O)C(CO)=CC(C(=O)O1)C34O)O2 (centres unmarked) [M4, 3″-O-desmethyl, 4-hydroxy-H2B1a] | 6.13E+03 | 4.65E+03 | 5.03E+03 | 4.08E+03 | 2.43E+03 | 7.98E+03 | 4.09E+03 | 5.21E+03 | 4.12E+03 | 5.38E+03 | 5.67E+03 | 5.92E+03 | 0.004 ± 0.0004 | 5.06E+03 | 57.5 ± 13.2 | 6.0 ± 0.2 | 2.00 | 1.84 | 1.30 | 0.57 | MRTlast [1]: 29.4 ± 1.7 h; activity against An. stephensi [2]: minor mosquitocidal properties; mean survival of mosquitoes after blood meal ([2]; blood meal at Cmax level): decreased; mosquito survival ([2]; blood meal at Cmax level, observation period of 3 days): 35%
